Results: paper PMC8317940, “Strained contacts with the cell membrane may influence ligand affinity to G protein coupled receptors: a case of free fatty acid receptor 1 agonists” (Journal of Enzyme Inhibition and Medicinal Chemistry, 2021)

Biological target: T1, free fatty acid receptor 1 (FFA1, GPR40) (Homo sapiens, UniProt O14842)
T1 construct: gene FFAR1
Experiment: calcium flux (FLIPR) agonist assay in CHO cells stably expressing human FFA1
Format: cell-based

T1 sequence (O14842 whole entry): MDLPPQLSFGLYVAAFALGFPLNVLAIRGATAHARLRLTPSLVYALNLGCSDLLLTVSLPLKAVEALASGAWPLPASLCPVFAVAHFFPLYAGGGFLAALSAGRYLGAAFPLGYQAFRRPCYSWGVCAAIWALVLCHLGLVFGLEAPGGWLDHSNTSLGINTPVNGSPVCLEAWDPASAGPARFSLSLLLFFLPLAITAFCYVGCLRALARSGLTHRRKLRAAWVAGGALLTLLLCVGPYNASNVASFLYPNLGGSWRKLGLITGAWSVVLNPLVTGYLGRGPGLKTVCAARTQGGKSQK

EC50 [nM] | SMILES
1860 | O=C(O)CCc1nnc(C(=O)Nc2ccc(-c3cccc(C(F)(F)F)c3)cc2)s1 [2e, 3-[5-({[3′-(Trifluoromethyl)biphenyl-4-yl]amino}carbonyl)-1,3,4-thiadiazol-2-yl]propanoic acid]
1350 | COc1cccc(-c2ccc(NC(=O)c3nnc(CCC(=O)O)s3)cc2)c1 [2g, 3-(5-{[(3′-Methoxybiphenyl-4-yl)amino]carbonyl}-1,3,4-thiadiazol-2-yl)propanoic acid]
1320 | O=C(O)CCc1nnc(C(=O)Nc2cccc(-c3ccc(Cl)cc3)c2)s1 [2a, 3-(5-{[(4′-Chlorobiphenyl-3-yl)amino]carbonyl}-1,3,4-thiadiazol-2-yl)propanoic acid]
1250 | O=C(O)CCc1nnc(C(=O)Nc2cccc(-c3ccc(OC(F)(F)F)cc3)c2)s1 [2c, 3-[5-({[4′-(Trifluoromethoxy)biphenyl-3-yl]amino}carbonyl)-1,3,4-thiadiazol-2-yl]propanoic acid]
